Results as given in PubChem BioAssay AID248 (DTP/NCI, 2004).
Toxic doses and inconclusive results are not listed. No stated cut-off is given here; in the data, active means T/C of 150% or more; inactive means T/C below 125%.

Test system: L1210 leukemia ip in BDF1 mice, survival T/C
Test: NCI In Vivo Anticancer Drug Screen. Data for tumor model L1210 Leukemia (intraperitoneal) in B6D2F1 (BDF1) mice
Conditions: endpoint: mean survival time, higher = longer survival
In short: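 Value reflects the ratio of survival in compound-treated mice to survival in vehicle-treated controls, with both groups carrying the same transplanted tumor.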

[1] = dose: 100.0 mg/kg/injection, schedule: Q04DX003 (ip), vehicle: Klucel (hydroxypropylcellulose) (HPC)
[2] = dose: 100.0 mg/kg/injection, schedule: Q01DX001 (ip), vehicle: saline
[3] = dose: 100.0 mg/kg/injection, schedule: Q04DX002 (ip), vehicle: Klucel (hydroxypropylcellulose) (HPC)
[4] = dose: 200.0 mg/kg/injection, schedule: Q04DX002 (ip), vehicle: Klucel (hydroxypropylcellulose) (HPC)
[5] = dose: 400.0 mg/kg/injection, schedule: Q04DX002 (ip), vehicle: Klucel (hydroxypropylcellulose) (HPC)
[6] = dose: 50.0 mg/kg/injection, schedule: Q01DX009 (ip), vehicle: Klucel (hydroxypropylcellulose) (HPC)
[7] = dose: 100.0 mg/kg/injection, schedule: Q04DX003 (ip), vehicle: saline with Tween-80

Measured: T/C

O=C(CCN1CC1)OC1CCCC1
inactive: dose: 0.25 mg/kg/injection, schedule: Q01DX009 (ip), vehicle: Klucel (hydroxypropylcellulose) (HPC) 91 % of control | dose: 0.5 mg/kg/injection, schedule: Q01DX009 (ip), vehicle: Klucel (hydroxypropylcellulose) (HPC) 97 % of control | dose: 1.0 mg/kg/injection, schedule: Q01DX009 (ip), vehicle: Klucel (hydroxypropylcellulose) (HPC) 103 % of control | dose: 2.5 mg/kg/injection, schedule: Q01DX009 (ip), vehicle: Klucel (hydroxypropylcellulose) (HPC) 100 % of control | dose: 20.0 mg/kg/injection, schedule: Q04DX003 (ip), vehicle: Klucel (hydroxypropylcellulose) (HPC) 98 % of control | dose: 40.0 mg/kg/injection, schedule: Q04DX003 (ip), vehicle: Klucel (hydroxypropylcellulose) (HPC) 97 % of control | dose: 80.0 mg/kg/injection, schedule: Q04DX003 (ip), vehicle: Klucel (hydroxypropylcellulose) (HPC) 97 % of control | [1] 102 % of control

C/C=N\O
inactive: dose: 25.0 mg/kg/injection, schedule: Q01DX001 (ip), vehicle: saline 112 % of control | dose: 50.0 mg/kg/injection, schedule: Q01DX001 (ip), vehicle: saline 102 % of control | [2] 102 % of control

CC(=O)CCP(C)(=O)O
inactive: dose: 100.0 mg/kg/injection, schedule: Q04DX002 (ip), vehicle: saline with Tween-80 95 % of control | dose: 200.0 mg/kg/injection, schedule: Q04DX002 (ip), vehicle: saline with Tween-80 92 % of control | dose: 400.0 mg/kg/injection, schedule: Q04DX002 (ip), vehicle: saline with Tween-80 104 % of control

CCCCCCCc1ccc(N=Cc2ccc(OCCC)cc2)cc1
inactive: dose: 100.0 mg/kg/injection, schedule: Q01DX009 (ip), vehicle: saline with Tween-80 100 % of control | dose: 200.0 mg/kg/injection, schedule: Q01DX009 (ip), vehicle: saline with Tween-80 87 % of control | dose: 400.0 mg/kg/injection, schedule: Q01DX009 (ip), vehicle: saline with Tween-80 86 % of control

OCCC#CCCCOC1CCCCO1 (stereo not given)
inactive: [3] 105 % of control | [4] 90 % of control | [5] 93 % of control

CS(=O)(=O)N1C=CC=CC=C1
inactive: dose: 12.5 mg/kg/injection, schedule: Q01DX009 (ip), vehicle: Klucel (hydroxypropylcellulose) (HPC) 91 % of control | dose: 12.5 mg/kg/injection, schedule: Q04DX003 (ip), vehicle: Klucel (hydroxypropylcellulose) (HPC) 96 % of control | dose: 25.0 mg/kg/injection, schedule: Q01DX009 (ip), vehicle: Klucel (hydroxypropylcellulose) (HPC) 95 % of control | dose: 25.0 mg/kg/injection, schedule: Q04DX003 (ip), vehicle: Klucel (hydroxypropylcellulose) (HPC) 98 % of control | [6] 95 % of control | dose: 50.0 mg/kg/injection, schedule: Q04DX003 (ip), vehicle: Klucel (hydroxypropylcellulose) (HPC) 105 % of control

c1ccc(-c2oc3cc4c(cc3c2-c2ccc(OCCN3CCCC3)cc2)CCC4)cc1
inactive: [7] 90 % of control

CCCCCCCCCCCCCCCCOc1ccc(NC(N)=S)cc1
inactive: dose: 75.0 mg/kg/injection, schedule: Q04DX003 (ip), vehicle: Klucel (hydroxypropylcellulose) (HPC) 101 % of control | dose: 100.0 mg/kg/injection, schedule: Q01DX001 (ip), vehicle: Klucel (hydroxypropylcellulose) (HPC) 96 % of control | dose: 150.0 mg/kg/injection, schedule: Q04DX003 (ip), vehicle: Klucel (hydroxypropylcellulose) (HPC) 88 % of control | dose: 200.0 mg/kg/injection, schedule: Q01DX001 (ip), vehicle: Klucel (hydroxypropylcellulose) (HPC) 97 % of control | dose: 300.0 mg/kg/injection, schedule: Q04DX003 (ip), vehicle: Klucel (hydroxypropylcellulose) (HPC) 89 % of control | dose: 400.0 mg/kg/injection, schedule: Q01DX001 (ip), vehicle: Klucel (hydroxypropylcellulose) (HPC) 93 % of control

Cc1ccc(Nc2c3ccccc3nc3ccccc23)c(C)c1
inactive: [1] 96 % of control | dose: 200.0 mg/kg/injection, schedule: Q04DX003 (ip), vehicle: Klucel (hydroxypropylcellulose) (HPC) 100 % of control

N#CSCC(=O)OC1CCCCC1
inactive: dose: 5.0 mg/kg/injection, schedule: Q01DX001 (ip), vehicle: saline 98 % of control | dose: 10.0 mg/kg/injection, schedule: Q01DX001 (ip), vehicle: saline 96 % of control | dose: 20.0 mg/kg/injection, schedule: Q01DX001 (ip), vehicle: saline 96 % of control | dose: 40.0 mg/kg/injection, schedule: Q01DX001 (ip), vehicle: saline 93 % of control

Cl/C=C/CSc1ccccc1
inactive: [2] 100 % of control | dose: 200.0 mg/kg/injection, schedule: Q01DX001 (ip), vehicle: saline 103 % of control | dose: 400.0 mg/kg/injection, schedule: Q01DX001 (ip), vehicle: saline 100 % of control

CC([NH-])=O.CC([NH-])=O.[Cl][Pt+2][Cl]
inactive: dose: 50.0 mg/kg/injection, schedule: Q01DX009 (ip), vehicle: water 120 % of control | dose: 100.0 mg/kg/injection, schedule: Q01DX009 (ip), vehicle: water 115 % of control | dose: 100.0 mg/kg/injection, schedule: Q04DX003 (ip), vehicle: water 114 % of control | dose: 200.0 mg/kg/injection, schedule: Q04DX003 (ip), vehicle: water 110 % of control

CC(=O)C(N=Nc1nn[nH]n1)C(C)=O
inactive: dose: 100.0 mg/kg/injection, schedule: Q04DX003 (ip), vehicle: saline 104 % of control | dose: 200.0 mg/kg/injection, schedule: Q04DX003 (ip), vehicle: saline 93 % of control | dose: 400.0 mg/kg/injection, schedule: Q04DX003 (ip), vehicle: saline 96 % of control

O=Nc1cc(-c2nccc3ccccc23)[nH]c1-c1ccccc1
inactive: dose: 100.0 mg/kg/injection, schedule: Q01DX001 (ip), vehicle: other 94 % of control | dose: 200.0 mg/kg/injection, schedule: Q01DX001 (ip), vehicle: other 96 % of control | dose: 400.0 mg/kg/injection, schedule: Q01DX001 (ip), vehicle: other 94 % of control

CCOC(=O)C[n+]1ccccc1C
inactive: dose: 50.0 mg/kg/injection, schedule: Q04DX002 (ip), vehicle: saline 90 % of control | dose: 100.0 mg/kg/injection, schedule: Q04DX002 (ip), vehicle: saline 97 % of control | dose: 200.0 mg/kg/injection, schedule: Q04DX002 (ip), vehicle: saline 93 % of control

OC1OC(COCc2ccccc2)C(OCc2ccccc2)C1OCc1ccccc1 (stereo not given)
inactive: dose: 100.0 mg/kg/injection, schedule: Q01DX001 (ip), vehicle: saline with Tween-80 95 % of control | dose: 200.0 mg/kg/injection, schedule: Q01DX001 (ip), vehicle: saline with Tween-80 95 % of control

CCN(CC)c1ccc(Cc2cc(O)c3c(c2O)C(=O)c2ccccc2C3=O)cc1
inactive: [6] 89 % of control | dose: 100.0 mg/kg/injection, schedule: Q01DX009 (ip), vehicle: Klucel (hydroxypropylcellulose) (HPC) 104 % of control | [3] 89 % of control | [4] 89 % of control | [5] 96 % of control

CC(C)(C)c1ccc(C(=O)O)cc1Br
inactive: dose: 50.0 mg/kg/injection, schedule: Q04DX003 (ip), vehicle: other 104 % of control | dose: 100.0 mg/kg/injection, schedule: Q04DX003 (ip), vehicle: other 113 % of control | dose: 200.0 mg/kg/injection, schedule: Q04DX003 (ip), vehicle: other 98 % of control

CC(=O)OC1CC(C)(C)CC(OC(C)=O)C1(C)C (stereo not given)
inactive: dose: 75.0 mg/kg/injection, schedule: Q01DX001 (ip), vehicle: saline 100 % of control | dose: 150.0 mg/kg/injection, schedule: Q01DX001 (ip), vehicle: saline 111 % of control

CC(C)(C)NC(=O)CCC(CC(=O)NC(C)(C)C)C1([N+](=O)[O-])CCCCC1 (stereo not given)
inactive: [7] 92 % of control | dose: 200.0 mg/kg/injection, schedule: Q04DX003 (ip), vehicle: saline with Tween-80 91 % of control | dose: 400.0 mg/kg/injection, schedule: Q04DX003 (ip), vehicle: saline with Tween-80 86 % of control
